Results published in paper PMC12560079, “Cytotoxic Triterpene Glycosides from Mexican Sea Cucumber Holothuria inornata” (Journal of Natural Products, 2025).
Read-outs that look alike come from different tables or passages of the source.

Experiments:
[1] = test system: human lung adenocarcinoma (SKLU-1); assay: SRB cytotoxicity assay, SKLU-1; assay type: cell-based; conditions: SK-LU-1, SRB method, 48 h exposure, ± SD, read-out: Cell Line IC50 SKLU-1
Protocol: (§1) Cytotoxicity was evaluated based on the percentage of cell growth inhibition. The cancer cell lines were obtained from the National Cancer Institute (NCI, Bethesda, MD). The study utilized human cancer cell lines derived from central nervous system glia (U251), prostate (PC-3), leukemia (K562), colon (HCT-15), breast (MCF-7), and lung (SKLU). Each cell line was maintained in RPMI 1640 medium supplemented with fetal bovine serum (10%), L-glutamate (2.0 mM), 10,000 units/mL penicillin G, 10,000 […] sulfate, […] amphotericin B and 1% nonessential amino acids. Cytotoxicity was assessed by treating cancerous cells with the extract, the saponin fraction, and the major isolated compounds, all of which were solubilized in ultrapure water (18.2 MΩ) and tested at a concentration of 25 μg/mL. For the determination of IC50 values, the same cancer cell lines were evaluated and had the same treatment, while the range of concentrations was 25, 12.5, 6.5, 5.0, 2.5, and 1.25 μg/mL in triplicate wells for each concentration; commercially formulated mitoxantrone, used as a water-soluble chemotherapeutic drug, was used as a positive control, and ultrapure water was used as a negative control. The resulting data obtained from the assay for each cell line were analyzed using nonlinear regression to calculate IC50 using GraphPad Prism 10.5.0 (San Diego, CA, USA). The percentage of cell growth inhibition was determined by using the protein-binding dye sulforhodamine B (SRB) in a microculture assay. Cells were harvested from culture flasks and seeded into 96-well plates at a density of 5,000 to 10,000 cells per well, maintaining the same temperature and humidity conditions as during culture incubation. The test compounds were then added, and cells were exposed for 48 h. After incubation, cells were fixed in situ by adding 50 μL of cold 50% trichloroacetic acid and incubating at 4 °C for 1 h. […] The plates were then shaken for 10 min, and absorbance was measured at 515 nm using a microplate spectrophotometer.

[2] = test system: human prostatic adenocarcinoma (PC-3); assay: SRB cytotoxicity assay, PC-3; assay type: cell-based; conditions: SRB method, 48 h exposure, ± SD, read-out: Cell Line IC50 PC-3
Protocol: as §1

[3] = test system: cancer cell lines U251, PC-3, K562, HCT-15, MCF-7, SKLU-1; assay: SRB cytotoxicity assay, panel of six cancer cell lines; assay type: cell-based, human; conditions: for growth inhibition (cytotoxic activity) of cancer cell lines: 25 μg/mL, six cell lines, result in words (Figure 1)
Protocol: Cytotoxicity was evaluated based on the percentage of cell growth inhibition. The cancer cell lines were obtained from the National Cancer Institute (NCI, Bethesda, MD). The study utilized human cancer cell lines derived from central nervous system glia (U251), prostate (PC-3), leukemia (K562), colon (HCT-15), breast (MCF-7), and lung (SKLU). Each cell line was maintained in RPMI 1640 medium supplemented with fetal bovine serum (10%), L-glutamate (2.0 mM), 10,000 units/mL penicillin G, […] streptomycin sulfate, 25 mg/mL amphotericin B and 1% nonessential amino acids. Cytotoxicity was assessed by treating cancerous cells with the extract, the saponin fraction, and the major isolated compounds, all of which were solubilized in ultrapure water (18.2 MΩ) and tested at a concentration of 25 μg/mL. For the determination of IC50 values, the same cancer cell lines were evaluated and had the same treatment, while the range of concentrations was 25, 12.5, 6.5, 5.0, 2.5, and 1.25 μg/mL in triplicate wells for each concentration; commercially formulated mitoxantrone, used as a water-soluble chemotherapeutic drug, was used as a positive control, and ultrapure water was used as a negative control. The resulting data obtained from the assay for each cell line were analyzed using nonlinear regression to calculate IC50 using GraphPad Prism 10.5.0 (San Diego, CA, USA). The percentage of cell growth inhibition was determined by using the protein-binding dye sulforhodamine B (SRB) in a microculture assay. Cells were harvested from culture flasks and seeded into 96-well plates at a density of 5,000 to 10,000 cells per well, maintaining the same temperature and humidity conditions as during culture incubation. The test compounds were then added, and cells were exposed for 48 h. After incubation, cells were fixed in situ by adding 50 μL of cold 50% trichloroacetic acid and incubating at 4 °C for 1 h. The plates were then washed with Milli-Q water, air-dried at room temperature, and stained with a 0.4% SRB solution. Excess SRB was removed by washing with 1% aqueous acetic acid. The plates were air-dried, and the bound dye was solubilized with 100 μL of a 10 mM unbuffered Tris base. The plates were then shaken for 10 min, and absorbance was measured at 515 nm using a microplate spectrophotometer.

[4] = test system: human chronic myelogenous leukemia (K562); assay: SRB cytotoxicity assay, K562; assay type: cell-based; conditions: SRB method, 48 h exposure, ± SD, read-out: Cell Line IC50 K562
Protocol: as §1

[5] = test system: human colorectal adenocarcinoma (HCT-15); assay: SRB cytotoxicity assay, HCT-15; assay type: cell-based; conditions: SRB method, 48 h exposure, ± SD, read-out: Cell Line IC50 HCT-15
Protocol: as §1

[6] = test system: human glioblastoma (U251); assay: SRB cytotoxicity assay, U251; assay type: cell-based; conditions: U-251, SRB method, 48 h exposure, ± SD, read-out: Cell Line IC50 U251
Protocol: as §1

[7] = test system: human mammary adenocarcinoma (MCF-7); assay: SRB cytotoxicity assay, MCF-7; assay type: cell-based; conditions: MCF7, SRB method, 48 h exposure, ± SD, read-out: Cell Line IC50 MCF-7
Protocol: as §1

[8] = Homo sapiens, span over the evaluated cell lines, SRB method, read-out: IC50 values across the tested cancer cell lines

| Compound | IC50 [1] [nM] | IC50 [2] [nM] | growth inhibition (cytotoxic activity) of cancer cell lines ([3]; SRB method) | IC50 ([3]; Homo sapiens, span over MCF-7 and SKLU-1 cell lines, read-out: IC50 values against MCF-7 and SKLU-1) [nM] | IC50 [3, 8] [nM] | IC50 ([3]; span over the evaluated cell lines, SRB method, read-out: IC50 values across the tested cancer cell lines) [nM] | IC50 [4] [nM] | IC50 [5] [nM] | IC50 [6] [nM] | IC50 [7] [nM] |
| --- | --- | --- | --- | --- | --- | --- | --- | --- | --- | --- |
| COC1C(O)C(CO)OC(OC2C(O)C(CO)OC(OC3C(C)OC(OC4C(OC5CCC6(C)C7=CC(O)C89C(=O)OC(C)(CCCC(C)(C)OC(C)=O)C8(O)CCC9(C)C7CCC6C5(C)C)OCC(OS(=O)(=O)O)C4O)C(O)C3O)C2O)C1O [Inornatoside B (2), 25-acetoxy-3-O-(3-O-methyl-β-D-glucopyranosyl-(1→3)-β-D-glucopyranosyl-(1→4)-β-D-quinovopyranosyl-(1→2)-4-O-sodiumsulfate-β-D-xylopyranoside)-holost-9(11)-ene-3β,12α,17α-triol] | 500 ± 10 | 490 ± 10 | significantly more active than holothurin B (7) | 470 to 500 | 470 to 1040 | ~500 | 480 ± 10 | 1040 ± 10 | 540 ± 10 | 470 ± 40 |
| O=C1c2c(O)ccc(O)c2C(=O)c2c(NCCNCCO)ccc(NCCNCCO)c21 [Mitoxantrone, reference compound] | 1160 ± 150 | 630 ± 40 |  |  | 550 to 1160 |  | 650 ± 20 | 750 ± 40 | 550 ± 40 | 720 ± 10 |
| CC(=O)OC(C)(C)CCCC1(C)OC(=O)C23C(O)C=C4C(CCC5C4(C)CCC(OC4OCC(OS(=O)(=O)O)C(O)C4OC4OC(C)C(O)C(O)C4O)C5(C)C)C2(C)CCC13O [Inornatoside A (1), 25-acetoxy-3-O-(β-D-quinovopyranosyl-(1→2)-4-O-sodiumsulfate-β-D-xylopyranoside)-holost-9(11)-ene-3β,12α,17α-triol] | 3650 ± 20 | 5350 ± 10 | significantly more active than holothurin B (7) |  | 3530 to 5350 |  | 4240 ± 20 | 4690 ± 10 | 3530 ± 130 | > 50000 |
| CC1OC(OC2C(OC3CCC4(C)C5=CC(O)C67C(=O)OC(C)(C8CCC(C)(C)O8)C6(O)CCC7(C)C5CCC4C3(C)C)OCC(OS(=O)(=O)O)C2O)C(O)C(O)C1O (centres unmarked) [holothurin B (7), holothurin B] |  |  | did not exhibit high sensitivity |  |  |  |  |  |  |  |
